Measured values taken from US12060347B2 (BRISTOL-MYERS SQUIBB COMPANY, priority 2016, dated 2024).

Target: T1, human PAR4 (Homo sapiens, UniProt Q96RI0)
T1 construct: expressed in transfected cells; host or cells: HEK293 PAR4 Clone 1.2A (BMS Arctic ID 383940)
T1 sequence (Q96RI0 18-385): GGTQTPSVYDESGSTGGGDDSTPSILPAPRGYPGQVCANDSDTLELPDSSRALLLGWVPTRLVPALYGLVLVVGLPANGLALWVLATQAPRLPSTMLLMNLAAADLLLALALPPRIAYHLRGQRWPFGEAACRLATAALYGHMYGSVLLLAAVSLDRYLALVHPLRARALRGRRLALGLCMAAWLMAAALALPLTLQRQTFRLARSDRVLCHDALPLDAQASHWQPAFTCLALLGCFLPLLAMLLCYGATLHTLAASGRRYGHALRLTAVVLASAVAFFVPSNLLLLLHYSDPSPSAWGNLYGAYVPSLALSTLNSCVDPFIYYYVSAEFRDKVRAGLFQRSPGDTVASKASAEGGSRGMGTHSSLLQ
Assay: PAR4 FLIPR assay: antagonism of agonist-peptide-induced calcium mobilization in PAR4-expressing HEK293 cells
Format: cell-based
Settings: H-Ala-Phe(4-F)-[…]NH2-induced intracellular calcium mobilization, 11-point curves

IC50 [nM] | SMILES
180 | COc1cccc2sc(-c3cc(C)cc4nc(OC(F)F)cnc34)nc12 [Example 51, 2-(2-(difluoromethoxy)-7-methylquinoxalin-5-yl)-4-methoxybenzo[d]thiazole]
4.7 | Cc1cc(-c2nc3c(C)cccc3s2)c2ncc(OC(F)F)nc2c1 [Example 52, 2-(2-(difluoromethoxy)-7-methylquinoxalin-5-yl)-4-methylbenzo[d]thiazole]
9.8 | Cc1cc(-c2nc3c(F)cccc3s2)c2ncc(OC(F)F)nc2c1 [Example 53, 2-(2-(difluoromethoxy)-7-methylquinoxalin-5-yl)-4-fluorobenzo[d]thiazole]
94 | CNCCOc1ccc2oc(-c3cc(C)cc4nc(OC(F)F)cnc34)cc2c1 [Example 54, 2-(2-(2-(difluoromethoxy)-7-methylquinoxalin-5-yl)benzofuran-5-yloxy)-N-methylethanamine]
14 | COc1cc(OC)c2nc(-c3cc(C)cc4nc(OC(F)F)cnc34)sc2c1 [Example 55, 2-(2-(difluoromethoxy)-7-methylquinoxalin-5-yl)-4,6-dimethoxybenzo[d]thiazole]
4.7 | COc1ccc2oc(-c3cc(C)cc4nc(OC)cnc34)cc2c1 [Example 56, 2-methoxy-5-(5-methoxybenzofuran-2-yl)-7-methylquinoxaline]
3 | COc1cccc2nc(-c3cc(C)cc4nc(OC(F)F)cnc34)sc12 [Example 58, 2-(2-(difluoromethoxy)-7-methylquinoxalin-5-yl)-7-methoxybenzo[d]thiazole]
19 | Cc1cc(-c2nc3cc(F)ccc3s2)c2ncc(OC(F)F)nc2c1 [Example 60, 2-(2-(difluoromethoxy)-7-methylquinoxalin-5-yl)-5-fluorobenzo[d]thiazole]
43 | COC(=O)c1cccc2nc(-c3cc(C)cc4nc(OC(F)F)cnc34)sc12 [Example 61, Methyl 2-(2-(difluoromethoxy)-7-methylquinoxalin-5-yl)benzo[d]thiazole-7-carboxylate]
100 | COC(=O)N1CCc2nc(-c3cc(C)cc4nc(OC(F)F)cnc34)sc2C1 [Example 62, methyl 2-(2-(difluoromethoxy)-7-methylquinoxalin-5-yl)-6,7-dihydrothiazolo[5,4-c]pyridine-5(4H)-carboxylate]
2.9 | Cc1cc(-c2nc3ccc(OCCNS(=O)(=O)c4ccccc4)cc3s2)c2ncc(OC(F)F)nc2c1 [Example 63, N-(2-(2-(2-(difluoromethoxy)-7-methylquinoxalin-5-yl)benzo[d]thiazol-6-yloxy)ethyl) benzenesulfonamide]
7.4 | Cc1cc(-c2nc3cccc(CO)c3s2)c2ncc(OC(F)F)nc2c1 [Example 64, (2-(2-(difluoromethoxy)-7-methylquinoxalin-5-yl)benzo[d]thiazol-7-yl)methanol]
31 | COCc1cccc2nc(-c3cc(C)cc4nc(OC(F)F)cnc34)sc12 [Example 65, 2-(2-(difluoromethoxy)-7-methylquinoxalin-5-yl)-7-(methoxymethyl)benzo[d]thiazole]
28 | Cc1cc(-c2nc3cccc(CNS(=O)(=O)c4ccccc4)c3s2)c2ncc(OC(F)F)nc2c1 [Example 66, N-((2-(2-(difluoromethoxy)-7-methylquinoxalin-5-yl)benzo[d]thiazol-7-yl)methyl)benzenesulfonamide]
2.9 | Cc1cc(-c2nc3c(F)cc(OCCNS(=O)(=O)c4ccccc4)cc3s2)c2ncc(OC(F)F)nc2c1 [Example 67, N-(2-(2-(2-(difluoromethoxy)-7-methylquinoxalin-5-yl)-4-fluorobenzo[d]thiazol-6-yloxy)ethyl)benzenesulfonamide]
120 | Cc1ccc2sc(-c3cc(C)cc4nc(OC(F)F)cnc34)nc2c1 [Example 68, 2-(2-(difluoromethoxy)-7-methylquinoxalin-5-yl)-5-methylbenzo[d]thiazole]
36 | COC(=O)NCCOc1cccc2nc(-c3cc(C)cc4nc(OC(F)F)cnc34)sc12 [Example 69, Methyl 2-(2-(2-(difluoromethoxy)-7-methylquinoxalin-5-yl)benzo[d]thiazol-7-yloxy)ethylcarbamate]
34 | COC(=O)NCCOc1ccc(C)c2nc(-c3cc(C)cc4nc(OC(F)F)cnc34)sc12 [Example 70, Methyl 2-(2-(2-(difluoromethoxy)-7-methylquinoxalin-5-yl)-4-methylbenzo[d]thiazol-7-yloxy)ethylcarbamate]

IC50 [nM] | SMILES
160 | Cc1cc(-c2nc3ccc(OCc4cscn4)cc3s2)c2ncc(OC(F)F)nc2c1 [Example 71, 2-(2-(difluoromethoxy)-7-methylquinoxalin-5-yl)-6-(thiazol-4-ylmethoxy) benzo[d]thiazole]
1 | COc1cnc2c(-c3nc4ccc(OCCNS(=O)(=O)c5ccccc5)cc4s3)cc(C)cc2n1 [Example 72, N-(2-(2-(2-methoxy-7-methylquinoxalin-5-yl)benzo[d]thiazol-6-yloxy)ethyl)benzenesulfonamide]
2.3 | Cc1cc(-c2nc3c(C)cc(OCCNS(=O)(=O)c4ccccc4)cc3s2)c2ncc(OC(F)F)nc2c1 [Example 73, N-(2-(2-(2-(difluoromethoxy)-7-methylquinoxalin-5-yl)-4-methylbenzo[d]thiazol-6-yloxy)ethyl)benzenesulfonamide]
9.3 | Cc1cc(-c2nc3cccc(OCCO)c3s2)c2ncc(OC(F)F)nc2c1 [Example 74, 2-(2-(2-(difluoromethoxy)-7-methylquinoxalin-5-yl)benzo[d]thiazol-7-yloxy)ethanol]
14 | COCCOc1cccc2nc(-c3cc(C)cc4nc(OC(F)F)cnc34)sc12 [Example 75, 2-(2-(difluoromethoxy)-7-methylquinoxalin-5-yl)-7-(2-methoxyethoxy)benzo[d]thiazole]
2.1 | Cc1cc(-c2nc3cccc(NC(=O)OCc4ccccc4)c3s2)c2ncc(OC(F)F)nc2c1 [Example 76, benzyl 2-(2-(difluoromethoxy)-7-methylquinoxalin-5-yl)benzo[d]thiazol-7-ylcarbamate]
130 | COCCOc1ccc2nc(-c3cc(C)cc4nc(OC)cnc34)sc2c1 [Example 77, 2-(2-methoxy-7-methylquinoxalin-5-yl)-6-(2-methoxyethoxy)benzo[d]thiazole]
39 | COCCOc1cccc2nc(-c3cc(C)cc4nc(OC)cnc34)sc12 [Example 78, 2-(2-methoxy-7-methylquinoxalin-5-yl)-7-(2-methoxyethoxy)benzo[d]thiazole]
21 | COC(=O)Nc1cccc2nc(-c3cc(C)cc4nc(OC(F)F)cnc34)sc12 [Example 80, Methyl 2-(2-(difluoromethoxy)-7-methylquinoxalin-5-yl)benzo[d]thiazol-7-ylcarbamate]
1.5 | Cc1cc(-c2nc3c(C)cc(OCCNS(=O)(=O)c4ccc(F)cc4)cc3s2)c2ncc(OC(F)F)nc2c1 [Example 81, N-(2-(2-(2-(difluoromethoxy)-7-methylquinoxalin-5-yl)-4-methylbenzo[d]thiazol-6-yloxy)ethyl)-4-fluorobenzenesulfonamide]
280 | Cc1cc(-c2nc3cccc(OCC(=O)Nc4ccccc4)c3s2)c2ncc(OC(F)F)nc2c1 [Example 82, 2-(2-(2-(difluoromethoxy)-7-methylquinoxalin-5-yl)benzo[d]thiazol-7-yloxy)-N-phenylacetamide]
11 | Cc1cc(-c2nc3c(C)cc(OCCNS(=O)(=O)c4ccc(C(F)(F)F)cc4)cc3s2)c2ncc(OC(F)F)nc2c1 [Example 83, N-(2-(2-(2-(difluoromethoxy)-7-methylquinoxalin-5-yl)-4-methylbenzo[d]thiazol-6-yloxy)ethyl)-4-(trifluoromethyl)benzenesulfonamide]
2.5 | Cc1cc(-c2nc3c(C)cc(OCCNS(=O)(=O)c4ccc(F)cc4F)cc3s2)c2ncc(OC(F)F)nc2c1 [Example 84, N-(2-(2-(2-(difluoromethoxy)-7-methylquinoxalin-5-yl)-4-methylbenzo[d]thiazol-6-yloxy)ethyl)-2,4-difluorobenzenesulfonamide]
8.5 | Cc1cc(-c2nc3c(C)cc(OCCNS(=O)(=O)c4ccc(F)c(F)c4)cc3s2)c2ncc(OC(F)F)nc2c1 [Example 85, N-(2-(2-(2-(difluoromethoxy)-7-methylquinoxalin-5-yl)-4-methylbenzo[d]thiazol-6-yloxy)ethyl)-3,4-difluorobenzenesulfonamide]
7.2 | Cc1cc(-c2nc3c(C)cc(OCCNS(=O)(=O)c4ccc(Cl)cc4)cc3s2)c2ncc(OC(F)F)nc2c1 [Example 86, 4-chloro N-(2-(2-(2-(difluoromethoxy)-7-methylquinoxalin-5-yl)-4-methylbenzo[d]thiazol-6-yloxy)ethyl)benzenesulfonamide]
2 | COc1cnc2c(-c3nc4c(C)cc(OCCNS(=O)(=O)c5ccc(C)cc5)cc4s3)cc(C)cc2n1 [Example 87, N-(2-(2-(2-methoxy-7-methylquinoxalin-5-yl)-4-methylbenzo[d]thiazol-6-yloxy)ethyl)-4-methylbenzenesulfonamide]
84 | COc1cnc2c(-c3nc4c(C(F)(F)F)cc(OCCNS(=O)(=O)c5ccc(F)cc5)cc4s3)cc(C)cc2n1 [Example 90, 4-fluoro N-(2-(2-(2-methoxy-7-methylquinoxalin-5-yl)-4-(trifluoromethyl)benzo[d]thiazol-6-yloxy)ethyl)benzenesulfonamide]
62 | Cc1cc(-c2nc3c(C)cc(OCCNS(=O)(=O)c4ccc(F)cc4)cc3s2)c2ncc(C3CC3)nc2c1 [Example 91, N-(2-(2-(2-cyclopropyl-7-methylquinoxalin-5-yl)-4-methylbenzo[d]thiazol-6-yloxy)ethyl)-4-fluorobenzenesulfonamide]
